Legend:
Format in all cases: in vivo
[1] = system: barnyardgrass (Echinochloa crus-galli); assay: Test A preemergence, barnyardgrass; settings: 0 to 100 scale (0 no effect, 100 complete control)
Summary of the method: (§1)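 Sow seeds in loam–sand blend; spray soil directly (pre) and treat emerged one- to two-leaf plants 2–10 cm tall (post) with compound in surfactant-containing non-phytotoxic solvent. Keep in greenhouse about ten days. Score injury visually against controls from 0 to 100.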

[2] = system: large crabgrass (Digitaria sanguinalis); assay: Test A preemergence, large crabgrass; settings: 0 to 100 scale (0 no effect, 100 complete control)
Summary of the method: as §1

[3] = system: giant foxtail (Setaria faberi); assay: Test A preemergence, giant foxtail; settings: 0 to 100 scale (0 no effect, 100 complete control)
Summary of the method: as §1

[4] = system: morningglory (Ipomoea spp.); assay: Test A preemergence, morningglory; settings: 0 to 100 scale (0 no effect, 100 complete control)
Summary of the method: as §1

[5] = system: pigweed (Amaranthus retroflexus); assay: Test A preemergence, pigweed; settings: 0 to 100 scale (0 no effect, 100 complete control)
Summary of the method: as §1

[6] = system: velvetleaf (Abutilon theophrasti); assay: Test A preemergence, velvetleaf; settings: 0 to 100 scale (0 no effect, 100 complete control)
Summary of the method: as §1

[7] = system: wheat (Triticum aestivum); assay: Test A preemergence, wheat; settings: 0 to 100 scale (0 no effect, 100 complete control)
Summary of the method: as §1

corn (Zea mays) [8] = assay: Test A preemergence, corn; settings: 0 to 100 scale (0 no effect, 100 complete control)
Summary of the method: as §1

[9] = system: barnyardgrass (Echinochloa crus-galli); assay: Test A postemergence, barnyardgrass; settings: 0 to 100 scale (0 no effect, 100 complete control)
Summary of the method: as §1

[10] = system: large crabgrass (Digitaria sanguinalis); assay: Test A postemergence, large crabgrass; settings: 0 to 100 scale (0 no effect, 100 complete control)
Summary of the method: as §1

[11] = system: giant foxtail (Setaria faberi); assay: Test A postemergence, giant foxtail; settings: 0 to 100 scale (0 no effect, 100 complete control)
Summary of the method: as §1

[12] = system: morningglory (Ipomoea spp.); assay: Test A postemergence, morningglory; settings: 0 to 100 scale (0 no effect, 100 complete control)
Summary of the method: as §1

[13] = system: pigweed (Amaranthus retroflexus); assay: Test A postemergence, pigweed; settings: 0 to 100 scale (0 no effect, 100 complete control)
Summary of the method: as §1

[14] = system: velvetleaf (Abutilon theophrasti); assay: Test A postemergence, velvetleaf; settings: 0 to 100 scale (0 no effect, 100 complete control)
Summary of the method: as §1

[15] = system: wheat (Triticum aestivum); assay: Test A postemergence, wheat; settings: 0 to 100 scale (0 no effect, 100 complete control)
Summary of the method: as §1

corn (Zea mays) [16] = assay: Test A postemergence, corn; settings: 0 to 100 scale (0 no effect, 100 complete control)
Summary of the method: as §1

rice (Oryza sativa) = assay: Test B flooded paddy test, rice; settings: Flood, scale 0 to 100
Summary of the method: (§2)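 Compounds were added directly to paddy water over 2-leaf-stage plants in pots flooded 3 cm above soil, water depth maintained. Visual injury scored against controls after 13 to 15 days in greenhouse, 0 (none) to 100 (complete control); dash indicates no result.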

[17] = system: umbrella sedge (Cyperus difformis); assay: Test B flooded paddy test, umbrella sedge; settings: Flood, scale 0 to 100
Summary of the method: as §2

[18] = system: ducksalad (Heteranthera limosa); assay: Test B flooded paddy test, ducksalad; settings: Flood, scale 0 to 100
Summary of the method: as §2

[19] = system: barnyardgrass (Echinochloa crus-galli); assay: Test B flooded paddy test, barnyardgrass; settings: Flood
Summary of the method: as §2

[20] = 250 g ai/ha, scale 0 to 100 (0 no effect, 100 complete control)

CCn1c(=O)c(CS(=O)(=O)C2=NOC(C)(C)C2)nc2ccccc21 [Compound 28]
50: Plant response rating, Crabgrass, Large ([2]; 500 g ai/ha) | Plant response rating, Crabgrass, Large ([10]; 500 g ai/ha)
30: Plant response rating, Barnyardgrass ([9]; 125 g ai/ha)
0: Plant response rating, Barnyardgrass ([1]; 125 g ai/ha) | Plant response rating, Foxtail, Giant ([3]; 125 g ai/ha) | Plant response rating, Morningglory ([4]; 125 g ai/ha) | Plant response rating, Morningglory ([4]; 500 g ai/ha) | Plant response rating, Pigweed ([5]; 125 g ai/ha) | Plant response rating, Pigweed ([5]; 500 g ai/ha) | Plant response rating, Velvetleaf ([6]; 125 g ai/ha) | Plant response rating, Velvetleaf ([6]; 500 g ai/ha) | Plant response rating, Wheat ([7]; 125 g ai/ha) | Plant response rating, Wheat ([7]; 500 g ai/ha) | Plant response rating, Corn (corn (Zea mays) [8]; 125 g ai/ha) | Plant response rating, Corn (corn (Zea mays) [8]; 500 g ai/ha) | Plant response rating, Crabgrass, Large ([10]; 125 g ai/ha) | Plant response rating, Foxtail, Giant ([11]; 125 g ai/ha) | Plant response rating, Foxtail, Giant ([11]; 500 g ai/ha) | Plant response rating, Morningglory ([12]; 125 g ai/ha) | Plant response rating, Morningglory ([12]; 500 g ai/ha) | Plant response rating, Pigweed ([13]; 125 g ai/ha) | Plant response rating, Pigweed ([13]; 500 g ai/ha) | Plant response rating, Velvetleaf ([14]; 125 g ai/ha) | Plant response rating, Velvetleaf ([14]; 500 g ai/ha) | Plant response rating, Wheat ([15]; 125 g ai/ha) | Plant response rating, Wheat ([15]; 500 g ai/ha) | Plant response rating, Corn (corn (Zea mays) [16]; 125 g ai/ha) | Plant response rating, Corn (corn (Zea mays) [16]; 500 g ai/ha) | Plant response rating, Rice (rice (Oryza sativa); 31 g ai/ha) | Plant response rating, Rice (rice (Oryza sativa); 62 g ai/ha) | Plant response rating, Rice (rice (Oryza sativa); 125 g ai/ha) | Plant response rating, Rice (rice (Oryza sativa); 250 g ai/ha) | Plant response rating, Sedge, Umbrella ([17]; 31 g ai/ha) | Plant response rating, Sedge, Umbrella ([17]; 62 g ai/ha) | Plant response rating, Sedge, Umbrella ([17]; 125 g ai/ha) | Plant response rating, Sedge, Umbrella ([17]; 250 g ai/ha) | Plant response rating, Ducksalad ([18]; 31 g ai/ha) | Plant response rating, Ducksalad ([18]; 62 g ai/ha) | Plant response rating, Ducksalad ([18]; 125 g ai/ha) | Plant response rating, Ducksalad ([18]; 250 g ai/ha) | Plant response rating, Barnyardgrass ([19]; 31 g ai/ha, scale 0 to 100) | Plant response rating, Barnyardgrass ([19]; 62 g ai/ha, scale 0 to 100) | Plant response rating, Barnyardgrass ([19]; 125 g ai/ha, scale 0 to 100) | Plant response rating, Barnyardgrass [19, 20]
10: Plant response rating, Barnyardgrass ([1]; 500 g ai/ha)
20: Plant response rating, Foxtail, Giant ([3]; 500 g ai/ha)
40: Plant response rating, Crabgrass, Large ([2]; 125 g ai/ha) | Plant response rating, Barnyardgrass ([9]; 500 g ai/ha)

CC1(C)CC([S+]([O-])Cc2c(C(F)(F)Cl)nc3n(c2=O)CCCS3)=NO1 (centres unmarked) [Compound 36]
50: Plant response rating, Crabgrass, Large ([2]; 500 g ai/ha) | Plant response rating, Barnyardgrass ([9]; 500 g ai/ha) | Plant response rating, Crabgrass, Large ([10]; 500 g ai/ha) | Plant response rating, Foxtail, Giant ([11]; 125 g ai/ha)
30: Plant response rating, Crabgrass, Large ([2]; 125 g ai/ha) | Plant response rating, Foxtail, Giant ([3]; 125 g ai/ha) | Plant response rating, Crabgrass, Large ([10]; 125 g ai/ha) | Plant response rating, Morningglory ([12]; 500 g ai/ha)
0: Plant response rating, Barnyardgrass ([1]; 125 g ai/ha) | Plant response rating, Morningglory ([4]; 125 g ai/ha) | Plant response rating, Morningglory ([4]; 500 g ai/ha) | Plant response rating, Pigweed ([5]; 125 g ai/ha) | Plant response rating, Pigweed ([5]; 500 g ai/ha) | Plant response rating, Velvetleaf ([6]; 125 g ai/ha) | Plant response rating, Velvetleaf ([6]; 500 g ai/ha) | Plant response rating, Wheat ([7]; 125 g ai/ha) | Plant response rating, Wheat ([7]; 500 g ai/ha) | Plant response rating, Corn (corn (Zea mays) [8]; 125 g ai/ha) | Plant response rating, Morningglory ([12]; 125 g ai/ha) | Plant response rating, Pigweed ([13]; 125 g ai/ha) | Plant response rating, Pigweed ([13]; 500 g ai/ha) | Plant response rating, Velvetleaf ([14]; 125 g ai/ha) | Plant response rating, Velvetleaf ([14]; 500 g ai/ha) | Plant response rating, Wheat ([15]; 125 g ai/ha) | Plant response rating, Corn (corn (Zea mays) [16]; 500 g ai/ha) | Plant response rating, Rice (rice (Oryza sativa); 31 g ai/ha) | Plant response rating, Rice (rice (Oryza sativa); 62 g ai/ha) | Plant response rating, Rice (rice (Oryza sativa); 125 g ai/ha) | Plant response rating, Rice (rice (Oryza sativa); 250 g ai/ha) | Plant response rating, Sedge, Umbrella ([17]; 31 g ai/ha) | Plant response rating, Sedge, Umbrella ([17]; 62 g ai/ha) | Plant response rating, Sedge, Umbrella ([17]; 125 g ai/ha) | Plant response rating, Sedge, Umbrella ([17]; 250 g ai/ha) | Plant response rating, Ducksalad ([18]; 31 g ai/ha) | Plant response rating, Ducksalad ([18]; 62 g ai/ha) | Plant response rating, Ducksalad ([18]; 125 g ai/ha) | Plant response rating, Ducksalad ([18]; 250 g ai/ha) | Plant response rating, Barnyardgrass ([19]; 31 g ai/ha, scale 0 to 100) | Plant response rating, Barnyardgrass ([19]; 62 g ai/ha, scale 0 to 100) | Plant response rating, Barnyardgrass ([19]; 125 g ai/ha, scale 0 to 100) | Plant response rating, Barnyardgrass [19, 20]
20: Plant response rating, Barnyardgrass ([9]; 125 g ai/ha) | Plant response rating, Wheat ([15]; 500 g ai/ha)
10: Plant response rating, Corn (corn (Zea mays) [8]; 500 g ai/ha)
60: Plant response rating, Barnyardgrass ([1]; 500 g ai/ha) | Plant response rating, Foxtail, Giant ([11]; 500 g ai/ha)
70: Plant response rating, Foxtail, Giant ([3]; 500 g ai/ha)

From patent US20100099561A1, “HETEROBICYCLIC ALKYLTHIO-BRIDGED ISOXAZOLINES” (E.I. DU PONT DE NEMOURS AND COMPANY, priority 2008, published 2010)
